Here are results for six molecules from US20230183647A1, “METHOD FOR GENERATING FUNCTIONAL SKELETAL MUSCLE FIBERS INNERVATED BY MOTONEURONS” (ASSOCIATION FRANCAISE CONTRE LES MYOPATHIES (AFM), priority 2020, published 2023).

“Also recorded” adds a separate entry of the source.

Experiment [1] has as its system hiPSC-derived innervated myofibers. In words: Transient Calcium influx (Calcium handling) in hiPSC-derived innervated myofibers after drug addition. It counts as cell-based, human. The conditions noted are these: for Calcium release: cells at D45, single addition. As for the experimental part:
A-D. We measured the transient Calcium influx in control myofibers prior to drug addition (0 hr) and at different time points after a single addition of different concentrations of each drug. Violin plots display the number of influx per minute and per fiber (n>50). Statistical significance was determined using ANOVA multiple comparison test followed by Brown-Forsythe and Welch correction and comparison to the basal condition (prior to drug addition). A. 0; 2 and 20 μM for Glutamate, B. 0; 1 and 10 μM for Salbutamol. C. 0; 0.5 and 1 mM for Carisoprodol. D. 0; 10 and 100 μM for Mexiletine.
Calcium transients were measured after addition to the cell culture medium of FLUO-8AM fluorescent Ca^2+ indicator (AAT Bioquest). Cells were incubated for 30 min at 37° c in DM+I medium containing 5 μM Fluo8-AM and 0.04% Pluronic acid before imaging on a Fast Imaging Observer system (Axio Observer.Z1/7; Zeiss) with a 10× lens (10×/0.30 M27 DIC I EC Plan-Neofluar; […]). Fluorescence was excited at 488 nm and emission collected at >509 nm. Images were acquired as time series. Different regions were tracked to record the fluorescent intensity at a 10× magnification during 30 seconds and an interval of 200,0 ms corresponding to 151 frames. Analysis was performed using the Zen pro software (Zeiss). ROI was created for selected fibers then intensity mean for each fiber was exported and Calcium transients were calculated by counting the number of peaks intensity for each graph.
For drug treatment, cells were seeded and differentiated in 6 to 12-well plates for 45 days. We tested the activity of Mexiletine (M2727, Sigma Aldrich, 10; 100 μM diluted in methanol), Carisoprodol (C8759, Sigma Aldrich, […]; […] diluted in ethanol), Salbutamol (S8260, Sigma Aldrich, 1 μM; 10 μM, diliuted in methanol) and L-Glutamic acid potassium salt monohydrate (G1501, Sigma Aldrich, 2 μM; 20 μM diluted in H2O) added at 0.1% in the culture medium on fiber contractions. Cell contractions were captured as described for Calcium handling measurements.
To evaluate the potential application of hiPSC-derived innervated myofibers as a preclinical model for drug testing, we tested the response to different classes of pharmaceutical agents by real time video microscopy and Calcium handling analysis. Cells at D45 were treated for different durations with different concentrations of each molecule at (FIG. 8A-D).

Another experiment relates to hiPSC-derived myofibers. It counts as cell-based, human.

Turning to `CCCC(C)(COC(N)=O)COC(=O)NC(C)C` (centres unmarked) [Carisoprodol], in experiment [1] (0.5 to 1 mM, cells at D45), the “muscle contraction (Calcium influx)” value is “reduces muscle contraction 3 to 4 hrs”.
Regarding `N[C@@H](CCC(=O)[O-])C(=O)[O-].O.[K+].[K+]` [Glutamate, L-Glutamic acid potassium salt monohydrate], the Calcium release entry is recorded as “did not observe any difference” in experiment [1] (2 μM) and “increased activity 20 to 30 minutes” in experiment [1] (20 μM).
For the molecule `Cc1cccc(C)c1OCC(C)N` (centres unmarked) [Mexiletine], the Calcium handling result in experiment [1] (10 μM, cells at D45) was “decrease in Calcium handling 2 hrs”; in experiment [1] (100 μM, cells at D45), “sharp decrease 1 to 2 hrs”.
Take `CC(C)(C)NCC(O)c1ccc(O)c(CO)c1` (centres unmarked) [Salbutamol]: the “Ca2+ handling” value in experiment [1] (1 μM and 10 μM, cells at D45) is listed as “decreases Ca^2+ handling as early as 4 hours”.
As for `NC1=N[C@H](O)[C@H]2[C@H]3O[C@]4(O)O[C@@H]([C@@H](O)[C@@]2(N1)[C@@H]4O)[C@]3(O)CO` [Tetrodotoxin], the “cell contraction after drug addition (mean number of contractions)” value in the experiment with hiPSC-derived myofibers is on record as “irreversibly blocked; also recorded: irreversibly inhibits cell contraction”.
Alpha Bungarotoxin: in the experiment on hiPSC-derived myofibers, the “cell contraction after drug addition (mean number of contractions)” value is recorded as “irreversibly blocked; also recorded: irreversibly inhibits cell contraction”.
